The values that follow come from PubChem BioAssay AID1259246 (Broad Institute, 2017).

Several values for one entry are separate records, joined by “and”; a condition that tells them apart may be missing. Identical values can stand only once. Inconclusive results are not listed. Activity calls are given as the source filed them.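 How the source made its calls: active means valid dose-response fit whose half-maximal growth-inhibiting concentration is at or below a set limit above the top tested dose; inconclusive means flat fit with effect between 30 and 70%, or poor fit; inactive means half-maximal concentration above a set limit.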 Bounds are passed on as bounds.

In this assay the test system is Clostridioides difficile clinical isolate growth, OD600, 24 h. Briefly: antibacterial activity against Clostridioides difficile – 10-point retest, dose response (AID 1259246).
Consider `C[C@@H]1CN([C@@H](C)CO)C(=O)Cc2cc(NC(=O)CCCN(C)C)ccc2O[C@H]1CN(C)Cc1ccc(-c2ccccc2)cc1`, for which the IC50 is 31.4 µM.
Turning to `N#C[C@H]1[C@@H](c2ccc(C#Cc3ccccc3F)cc2)[C@@H](CO)N1C(=O)C1CCCCC1`, the 50% inhibitory concentration (IC50) was 157 µM.
In the case of `CO[C@H]1CN(C)C(=O)c2cc(NC(=O)Nc3cc(Cl)cc(Cl)c3)ccc2OC[C@@H](C)NC[C@H]1C`, the IC50 was 31.2 µM and 25.9 µM.
With `C[C@@H]1CN([C@@H](C)CO)C(=O)Cc2cc(NC(=O)CCCN(C)C)ccc2O[C@H]1CN(C)Cc1ccc(Oc2ccccc2)cc1`, the half-maximal inhibitory concentration (IC50) is 71.1 µM.
In the case of `C[C@@H]1CN([C@@H](C)CO)C(=O)c2cccc(NC(=O)Nc3ccccc3)c2O[C@@H]1CN(C)Cc1ccc(C(F)(F)F)cc1` it was 54.2 µM and 28 µM; in that of `Cc1ccc(S(=O)(=O)N[C@H]2CC[C@@H](CCNC(=O)Nc3ccc(Cl)cc3)O[C@H]2CO)cc1`, > 270 µM (inactive); in that of `C[C@@H]1CN([C@@H](C)CO)C(=O)c2cccc(NS(=O)(=O)c3ccccc3)c2O[C@@H]1CN(C)Cc1ccc(-c2ccccc2)cc1`, 62.5 µM.
As for `COc1ccc(NC(=O)Nc2cccc3c2O[C@H](CN(C)Cc2ccc(-c4ccccc4)cc2)[C@H](C)CN([C@@H](C)CO)C3=O)cc1`, the IC50 is 101 µM.
For the compound `COc1ccc(NC(=O)Nc2cccc3c2O[C@H](CN(C)Cc2ccc(C(F)(F)F)cc2)[C@H](C)CN([C@@H](C)CO)C3=O)cc1`, the IC50 is 25.6 µM.
For `C[C@@H]1CN([C@@H](C)CO)C(=O)c2cccc(NC(=O)Nc3ccc4c(c3)OCO4)c2O[C@@H]1CN(C)Cc1ccc(-c2ccccc2)cc1` the value was 3.03 µM; for `CO[C@@H](CN(C)C(=O)C1CCOCC1)[C@@H](C)CN(C(=O)Nc1ccc(C(F)(F)F)cc1)[C@H](C)CO`, 4.1 µM.
Regarding `CO[C@H]1CN(C)C(=O)c2ccc(NC(=O)Nc3cc(Cl)cc(Cl)c3)cc2OC[C@H](C)NC[C@H]1C`, the IC50 is 25.6 µM and 69.2 µM.
Take `C[C@@H]1CN([C@H](C)CO)C(=O)c2cc(NC(=O)Nc3cccc4ccccc34)ccc2O[C@@H](C)CCCCO[C@H]1CN(C)Cc1ccccc1`: the half-maximal inhibitory concentration (IC50) is 68.4 µM.
For `CO[C@H](CN(C)C(=O)C1CCOCC1)[C@H](C)CN(C(=O)Nc1ccc(C(F)(F)F)cc1)[C@@H](C)CO` the value was 21.4 µM.
For the compound `COc1ccc(C#Cc2cnc3c(c2)C(=O)N([C@@H](C)CO)C[C@@H](C)[C@H](CN(C)CC2CCCC2)O3)cc1`, the IC50 was 188 µM.
Consider `CO[C@@H]1CN(C)C(=O)c2cc(NC(=O)Nc3ccc(Cl)c(Cl)c3)ccc2OC[C@@H](C)NC[C@@H]1C`, for which the IC50 is 13.7 µM and 26.6 µM.
Turning to `C[C@H]1CN([C@@H](C)CO)S(=O)(=O)c2ccc(/C=C/c3ccccc3)cc2O[C@@H]1CN(C)Cc1ccc(C(=O)O)cc1`, the IC50 was 62.8 µM.
For `Cc1ccc(-c2ccc3c(c2)O[C@@H](CN(C)Cc2ccc(C(=O)O)cc2)[C@H](C)CN([C@@H](C)CO)S3(=O)=O)cc1` the value was 110 µM.
Consider `C[C@H]1CN([C@@H](C)CO)S(=O)(=O)c2ccc(C#CCC3CCCC3)cc2O[C@H]1CN(C)C`, for which the IC50 is 70.9 µM.
In the case of `Cc1ccc(-c2ccc3c(c2)O[C@@H](CN(C)Cc2ccc(C(=O)O)cc2)[C@H](C)CN([C@H](C)CO)S3(=O)=O)cc1`, the IC50 is 97 µM.
For the compound `C[C@H]1CN([C@@H](C)CO)C(=O)c2cccc(NC(=O)Nc3ccc(C(F)(F)F)cc3)c2O[C@H]1CN(C)Cc1ccc(-c2ccccc2)cc1`, the IC50 was 116 µM.
In the case of `COc1ccc(S(=O)(=O)Nc2cccc3c2O[C@H](CN(C)Cc2ccc(-c4ccccc4)cc2)[C@H](C)CN([C@@H](C)CO)C3=O)cc1` it was 54.2 µM; in that of `COc1ccc(CN(C)C[C@@H]2OCCCC[C@H](C)Oc3ccc(NC(=O)Nc4cccc5ccccc45)cc3C(=O)N([C@H](C)CO)C[C@H]2C)cc1`, 87.9 µM; in that of `CO[C@H]1CN(C)C(=O)c2cc(NC(=O)Nc3cc(Cl)cc(Cl)c3)ccc2OC[C@H](C)NC[C@H]1C`, 41.2 µM and 8.16 µM.
As for `Cc1cc(C(=O)Nc2cccc3c2O[C@@H](CN(C)Cc2ccc(-c4ccccc4)cc2)[C@H](C)CN([C@@H](C)CO)C3=O)n(C)n1`, the 50% inhibitory concentration (IC50) is 17.5 µM.
Take `Cc1ccc(S(=O)(=O)Nc2ccc3c(c2)C(=O)N([C@@H](C)CO)C[C@H](C)[C@@H](CN(C)Cc2ccc4c(c2)OCO4)OCCCC[C@@H](C)O3)cc1`: the IC50 was 17.6 µM.
In the case of `C[C@@H]1CN([C@@H](C)CO)C(=O)c2cc(NC(=O)Nc3cccc4ccccc34)ccc2O[C@@H](C)CCCCO[C@H]1CN(C)CC1CCCCC1` it was 77.1 µM; in that of `O=C(NCC[C@H]1CC[C@H](NC(=O)C2CC2)[C@@H](CO)O1)Nc1ccc(C(F)(F)F)cc1`, 15.4 µM.
As to `C[C@H]1CN([C@@H](C)CO)S(=O)(=O)c2ccc(C#CCC3CCCC3)cc2O[C@@H]1CN(C)C`, the IC50 was 72.5 µM.
For the compound `C[C@H]1CN([C@@H](C)CO)C(=O)Cc2cc(NC(=O)Nc3ccc(C(F)(F)F)cc3)ccc2O[C@H]1CN(C)Cc1ccncc1`, the IC50 is 7.49 µM.
In the case of `CO[C@H]1CN(C)C(=O)c2cc(NC(=O)Nc3ccc(Cl)c(Cl)c3)ccc2OC[C@@H](C)NC[C@H]1C` it was 14.9 µM and 13.1 µM; in that of `C[C@@H]1CN([C@@H](C)CO)C(=O)c2cccc(NC(=O)Nc3ccc(F)cc3)c2O[C@@H]1CN(C)Cc1ccc(-c2ccccc2)cc1`, 4.56 µM and 1.71 µM and 1.93 µM; in that of `C[C@@H]1CN([C@@H](C)CO)C(=O)c2cc(NC(=O)Nc3ccc(C(F)(F)F)cc3)ccc2O[C@@H](C)CCCCO[C@H]1CN(C)CC1CCCCC1`, 10.9 µM and 2.15 µM.
For `CO[C@H]1CN(C)C(=O)c2cc(NC(=O)Nc3ccc(Cl)c(Cl)c3)ccc2OC[C@@H](C)NC[C@@H]1C` the value was 14.5 µM and 17.6 µM; for `CO[C@@H]1CN(C)C(=O)c2cc(NC(=O)Nc3ccc(Cl)c(Cl)c3)ccc2OC[C@H](C)NC[C@@H]1C`, 17.8 µM and 12.5 µM; for `C[C@@H]1CCCCO[C@H](CN(C)Cc2ccc3c(c2)OCO3)[C@@H](C)CN([C@@H](C)CO)C(=O)c2cc(NS(=O)(=O)c3cccs3)ccc2O1`, 33.5 µM.
For the compound `CO[C@@H]1CN(C)C(=O)c2cc(NC(=O)Nc3cc(Cl)cc(Cl)c3)ccc2OC[C@H](C)NC[C@H]1C`, the IC50 is 15.8 µM and 36.4 µM.
Turning to `C[C@@H]1CN([C@H](C)CO)S(=O)(=O)c2ccc(C#CCC3CCCC3)cc2O[C@H]1CN(C)Cc1ccc(C(=O)O)cc1`, the IC50 was 76.2 µM.
As for `O=C(NCC[C@H]1CC[C@H](NS(=O)(=O)c2ccc(F)cc2)[C@@H](CO)O1)Nc1ccc(Cl)cc1`, the IC50 is 26.6 µM.
For `C[C@@H]1CN([C@@H](C)CO)S(=O)(=O)c2ccc(/C=C/c3ccccc3)cc2O[C@@H]1CN(C)Cc1ccc(C(=O)O)cc1` the value was > 240 µM (inactive).
As to `CO[C@@H]1CN(C)C(=O)c2cc(NC(=O)Nc3ccc(Cl)c(Cl)c3)ccc2OC[C@H](C)NC[C@H]1C`, the IC50 is 16 µM and 11.3 µM.
As to `CO[C@H](CN(C)C(=O)C1CCOCC1)[C@H](C)CN(C(=O)Nc1ccc(C(F)(F)F)cc1)[C@H](C)CO`, the IC50 is 26.2 µM.
With `CO[C@H](CN(C)C(=O)C1CCOCC1)[C@@H](C)CN(C(=O)Nc1ccc(C(F)(F)F)cc1)[C@@H](C)CO`, the IC50 was 2.03 µM.
Take `C[C@@H]1CCCCO[C@H](CN(C)CC2CCCCC2)[C@H](C)CN([C@H](C)CO)C(=O)c2cc(NC(=O)Nc3ccc(C(F)(F)F)cc3)ccc2O1`: the IC50 is 5.06 µM and 44.8 µM and 31.8 µM.
For `CCS(=O)(=O)N1[C@H](CO)[C@H](c2ccc(C#CCC3CCCC3)cc2)[C@@H]1C#N` the value was 80.2 µM; for `C[C@H](CO)N1C[C@H](C)[C@@H](CN(C)Cc2ccc(-c3ccccc3)cc2)Oc2ccc(NC(=O)CCCN(C)C)cc2CC1=O`, 68.7 µM; for `COc1ccc(S(=O)(=O)Nc2ccc3c(c2)C(=O)N([C@@H](C)CO)C[C@H](C)[C@@H](CN(C)Cc2ccc4c(c2)OCO4)OCCCC[C@@H](C)O3)cc1`, 12 µM.
For `CO[C@@H](CN(C)C(=O)C1CC1)[C@H](C)CN(C(=O)Nc1ccc(C(F)(F)F)cc1)[C@@H](C)CO` the value was 6.58 µM; for `C[C@@H]1CN([C@@H](C)CO)C(=O)c2cccc(NC(=O)Nc3ccc(C(F)(F)F)cc3)c2O[C@@H]1CN(C)Cc1ccccc1`, 2.69 µM.
Regarding `C[C@H]1CN([C@@H](C)CO)C(=O)c2ccccc2-c2ccccc2CO[C@@H]1CN(C)Cc1ccccc1C(F)(F)F`, the IC50 was 13.6 µM.
In the case of `C[C@@H]1CN([C@@H](C)CO)C(=O)c2cccc(NC(=O)Nc3ccc(C(F)(F)F)cc3)c2O[C@@H]1CN(C)Cc1ccc(-c2ccccc2)cc1`, the IC50 was 0.3 µM and 1.52 µM and 0.654 µM.
For `COc1ccc(NC(=O)Nc2cccc3c2O[C@H](CN(C)Cc2ccc(Oc4ccccc4)cc2)[C@H](C)CN([C@@H](C)CO)C3=O)cc1`, the IC50 is 2.47 µM and 0.531 µM and 0.465 µM.
In the case of `CO[C@H](CN(C)S(=O)(=O)c1cn(C)cn1)[C@@H](C)CN(C(=O)Nc1ccc(C(F)(F)F)cc1)[C@H](C)CO`, the IC50 is 12.6 µM.
With `CNC[C@H]1Oc2c(NC(=O)Nc3ccc(C(F)(F)F)cc3)cccc2C(=O)N([C@@H](C)CO)C[C@H]1C`, the 50% inhibitory concentration (IC50) is 36.7 µM.
In the case of `C[C@@H]1CN([C@H](C)CO)S(=O)(=O)c2ccc(/C=C/c3ccccc3)cc2O[C@H]1CN(C)Cc1ccc(C(=O)O)cc1`, the half-maximal inhibitory concentration (IC50) is 6.11 µM.
Take `CO[C@H]1CN(C)C(=O)c2cc(NC(=O)Nc3ccc(Cl)c(Cl)c3)ccc2OC[C@H](C)NC[C@@H]1C`: the IC50 was 15.1 µM and 73 µM.
As to `Cc1noc(C)c1NC(=O)Nc1cccc2c1O[C@H](CN(C)Cc1ccc(Oc3ccccc3)cc1)[C@H](C)CN([C@@H](C)CO)C2=O`, the IC50 was 57.4 µM and 36.1 µM.
In the case of `CO[C@H](CN(C)C(=O)C1CCOCC1)[C@@H](C)CN(C(=O)Nc1ccc(C(F)(F)F)cc1)[C@H](C)CO` it was 14.5 µM; in that of `CO[C@@H](CN(C)C(=O)C1CCOCC1)[C@H](C)CN(C(=O)Nc1ccc(C(F)(F)F)cc1)[C@@H](C)CO`, 23.4 µM.
`CO[C@@H]1CN(C)C(=O)c2ccc(NC(=O)Nc3cc(Cl)cc(Cl)c3)cc2OC[C@H](C)NC[C@H]1C`: the IC50 is 153 µM and 36.2 µM.
With `C[C@@H]1CCCCO[C@@H](CN(C)CC2CCCCC2)[C@@H](C)CN([C@@H](C)CO)C(=O)c2cc(NC(=O)Nc3ccc(C(F)(F)F)cc3)ccc2O1`, the IC50 was 50.2 µM and 17.8 µM.
Take `COc1ccc(CN(C)C[C@H]2OCCCC[C@H](C)Oc3ccc(NC(=O)Nc4ccc(C(F)(F)F)cc4)cc3C(=O)N([C@@H](C)CO)C[C@@H]2C)cc1`: the IC50 is 67.7 µM.
Regarding `CO[C@H]1CN(C)C(=O)c2ccc(NC(=O)Nc3ccc(Cl)c(Cl)c3)cc2OC[C@H](C)NC[C@H]1C`, the IC50 was 14.9 µM and 8.28 µM.
`C[C@@H]1CN([C@@H](C)CO)C(=O)c2cccc(NC(=O)Nc3ccc(C(F)(F)F)cc3)c2O[C@@H]1CN(C)C(=O)Nc1ccc(F)cc1`: the IC50 is 13.9 µM and > 240 µM (inactive).
